This assay has as its target T1, human PDE10A enzyme (Homo sapiens, UniProt Q9Y233).
T1 construct: Human PDE10A full-length gene was transfected into Sf9 or COS-7 cells; His-tag; made in house; host or cells: Sf9 or COS-7 cells
The experiment in a line: PDE10A enzyme activity inhibition test (SPA). It counts as biochemical. As to conditions: compound 1 μM, substrate [3H]cGMP, 60 min at room temperature, read-out: inhibition rate (%) (1 μM). On the procedure:
Human PDE10A full-length gene was transfected into Sf9 or COS-7 cells. The cells were disrupted and centrifuged, and human PDE10A enzyme was obtained from the residue. The enzyme extracted from Sf9 cells was partially purified using His-tag affinity column. The enzyme was stored at −70° C. until use. The PDE activity was measured using an SPA (Scintillation Proximity Assay) (GE Healthcare). To measure the inhibitory activity of the compound, 10 μL of serially diluted compound was reacted with 20 μL of PDE enzyme in an assay buffer (50 mM HEPES-NaOH, 8.3 mM MgCl2, 1.7 mM EGTA, 0.1% BSA (pH 7.4)) […] at room temperature. The final concentration of DMSO in the reaction mixture was 1 percent. The compounds were evaluated in duplicate in 96-well half-area plates (Corning). To start the reaction, 10 μL of substrate [^3H] cGMP (25 and 50 nM; GE Healthcare and PerkinElmer, respectively) was added to 40 μL. After 60 min of reaction at room temperature, yttrium SPA beads containing zinc sulphate were added (6 mg/mL, 20 μL) to terminate the reaction. After standing still for 1 hr, the measurement was performed using a scintillation counter (PerkinElmer) and the inhibition rate was calculated. The inhibition rate was calculated based on the control containing enzyme and DMSO as 0% and the control without enzyme as 100%.
T1 sequence (Q9Y233 267-1055): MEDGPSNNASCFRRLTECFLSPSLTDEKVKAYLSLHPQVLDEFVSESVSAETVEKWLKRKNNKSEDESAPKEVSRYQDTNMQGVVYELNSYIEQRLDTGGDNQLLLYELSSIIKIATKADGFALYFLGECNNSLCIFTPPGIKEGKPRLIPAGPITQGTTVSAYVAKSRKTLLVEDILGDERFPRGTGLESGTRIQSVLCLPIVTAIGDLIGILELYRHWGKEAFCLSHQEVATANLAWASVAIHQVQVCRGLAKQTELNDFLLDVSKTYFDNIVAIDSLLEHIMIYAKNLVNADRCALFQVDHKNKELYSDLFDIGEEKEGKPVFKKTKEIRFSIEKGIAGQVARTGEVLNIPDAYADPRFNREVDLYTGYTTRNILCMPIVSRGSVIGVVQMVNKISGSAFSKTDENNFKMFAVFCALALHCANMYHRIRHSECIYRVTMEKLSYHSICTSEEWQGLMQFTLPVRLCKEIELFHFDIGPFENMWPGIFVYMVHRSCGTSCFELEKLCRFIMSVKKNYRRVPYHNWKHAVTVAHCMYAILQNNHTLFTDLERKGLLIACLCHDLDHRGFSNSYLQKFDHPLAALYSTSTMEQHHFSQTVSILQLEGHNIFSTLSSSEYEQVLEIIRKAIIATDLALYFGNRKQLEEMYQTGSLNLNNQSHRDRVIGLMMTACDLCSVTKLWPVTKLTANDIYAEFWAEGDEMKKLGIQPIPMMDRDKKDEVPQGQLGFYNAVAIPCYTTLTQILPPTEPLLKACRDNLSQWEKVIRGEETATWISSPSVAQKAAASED
As for `Cn1cc(OCCCc2nc3ccccc3n2C)c(=O)c(-c2ccnn2-c2ccccc2)n1` [Example 1, 1-methyl-5-[3-(1-methyl-1H-benzimidazol-2-yl)propoxy]-3-(1-phenyl-1H-pyrazol-5-yl)pyridazin-4(1H)-one], the inhibition (in general, the change of the read-out against control, counted positive when it falls) at 1 µM stood at 96%.
To `Cn1cc(OCCN2CCn3c2nc2ccccc23)c(=O)c(-c2ccnn2-c2ccccc2)n1` [Example 2, 5-[2-(2,3-dihydro-1H-imidazo[1,2-a]benzimidazol-1-yl)ethoxy]-1-methyl-3-(1-phenyl-1H-pyrazol-5-yl)pyridazin-4(1H)-one] belongs 101%; to `Cn1c(CCCOc2cn(CC3CC3)nc(-c3ccnn3-c3ccccc3)c2=O)nc2ccccc21` [Example 3, 1-(cyclopropylmethyl)-5-[3-(1-methyl-1H-benzimidazol-2-yl)propoxy]-3-(1-phenyl-1H-pyrazol-5-yl)pyridazin-4(1H)-one], 98%; to `O=c1c(OCCN2CCn3c2nc2ccccc23)cn(CC2CC2)nc1-c1ccnn1-c1ccccc1` [Example 4, 1-(cyclopropylmethyl)-5-[2-(2,3-dihydro-1H-imidazo[1,2-a]benzimidazol-1-yl)ethoxy]-3-(1-phenyl-1H-pyrazol-5-yl)pyridazin-4(1H)-one], 100%.
Consider `Cn1nccc1-c1nn(-c2ccccc2)cc(OCCCc2nc3ccccc3n2C)c1=O` [Example 5, 5-[3-(1-methyl-1H-benzimidazol-2-yl)propoxy]-3-(1-methyl-1H-pyrazol-5-yl)-1-phenylpyridazin-4(1H)-one], for which the inhibition at 1 µM came to 95.4%.
As for `Cn1nccc1-c1nn(-c2ccccc2)cc(OCCN2CCn3c2nc2ccccc23)c1=O` [Example 6, 5-[2-(2,3-dihydro-1H-imidazo[1,2-a]benzimidazol-1-yl)ethoxy]-3-(1-methyl-1H-pyrazol-5-yl)-1-phenylpyridazin-4(1H)-one], the inhibition at 1 µM turned out to be 97.2%.
As to `Cn1nccc1-c1nn(-c2ccccc2)cc(OCCc2ccc3ccccc3n2)c1=O` [Example 7, 3-(1-methyl-1H-pyrazol-5-yl)-1-phenyl-5-(2-quinolin-2-ylethoxy)pyridazin-4(1H)-one], the inhibition at 1 µM turned out to be 96.8%.
For `Cn1nccc1-c1nn(-c2ccccc2)cc(OCc2ccc3ccccc3n2)c1=O` [Example 8, 3-(1-methyl-1H-pyrazol-5-yl)-1-phenyl-5-(quinolin-2-ylmethoxy)pyridazin-4(1H)-one], the inhibition at 1 µM was determined as 68.4%.
In the case of `O=c1cnn(-c2cccc(C(F)(F)F)c2)cc1OCc1ccc2ccccc2n1` [Example 9, 5-(quinolin-2-ylmethoxy)-1-[3-(trifluoromethyl)phenyl]pyridazin-4(1H)-one], the inhibition at 1 µM was 6.5%.
To `Cn1cc(OCCOc2nc3ccccc3n2C)c(=O)c(-c2ccnn2-c2ccccc2)n1` [Example 10, 1-methyl-5-{2-[(1-methyl-1H-benzimidazol-2-yl)oxy]ethoxy}-3-(1-phenyl-1H-pyrazol-5-yl)pyridazin-4(1H)-one] belongs 95%.
For `Cn1cc(OCCCc2cn3ccccc3n2)c(=O)c(-c2ccnn2-c2ccccc2)n1` [Example 11, 5-(3-imidazo[1,2-a]pyridin-2-ylpropoxy)-1-methyl-3-(1-phenyl-1H-pyrazol-5-yl)pyridazin-4(1H)-one], the inhibition at 1 µM came out at 100%.
Regarding `Cn1cc(OCCCc2nc3cccnc3n2C)c(=O)c(-c2ccnn2-c2ccccc2)n1` [Example 12, 1-methyl-5-[3-(3-methyl-3H-imidazo[4,5-b]pyridin-2-yl)propoxy]-3-(1-phenyl-1H-pyrazol-5-yl)pyridazin-4(1H)-one], the inhibition at 1 µM was 102%.
In the case of `Cn1c(CCCOc2cn(CC3CC3)nc(-c3ccnn3-c3ccccc3)c2=O)nc2cccnc21` [Example 13, 1-(cyclopropylmethyl)-5-[3-(3-methyl-3H-imidazo[4,5-b]pyridin-2-yl)propoxy]-3-(1-phenyl-1H-pyrazol-5-yl)pyridazin-4(1H)-one], the inhibition at 1 µM amounted to 100%.
To `Cn1c(OCCOc2cn(CC3CC3)nc(-c3ccnn3-c3ccccc3)c2=O)nc2ccccc21` [Example 14, 1-(cyclopropylmethyl)-5-{2-[(1-methyl-1H-benzimidazol-2-yl)oxy]ethoxy}-3-(1-phenyl-1H-pyrazol-5-yl)pyridazin-4 (H)-one] belongs 98%; to `O=c1c(OCCOc2ccc3ccccc3n2)cn(CC2CC2)nc1-c1ccnn1-c1ccccc1` [Example 15, 1-(cyclopropylmethyl)-3-(1-phenyl-1H-pyrazol-5-yl)-5-[2-(quinolin-2-yloxy)ethoxy]pyridazin-4(1H)-one], 13%.
To `O=c1c(OCCCc2cn3ccccc3n2)cn(CC2CC2)nc1-c1ccnn1-c1ccccc1` [Example 16, 1-(cyclopropylmethyl)-5-(3-imidazo[1,2-a]pyridin-2-ylpropoxy)-3-(1-phenyl-1H-pyrazol-5-yl)pyridazin-4(1H)-one] belongs 98%; to `O=c1c(OCc2ccc3ccccc3n2)cn(CC2CC2)nc1-c1ccnn1-c1ccccc1` [Example 17, 1-(cyclopropylmethyl)-3-(1-phenyl-1H-pyrazol-5-yl)-5-(quinolin-2-ylmethoxy)pyridazin-4(1H)-one], 60%.
With `O=c1c(OCc2ccc3cccnc3c2)cn(CC2CC2)nc1-c1ccnn1-c1ccccc1` [Example 18, 1-(cyclopropylmethyl)-3-(1-phenyl-1H-pyrazol-5-yl)-5-(quinolin-7-ylmethoxy)pyridazin-4(1H)-one], the inhibition at 1 µM amounted to 20%.
For the compound `O=c1c(OCCn2ccn3ccnc23)cn(CC2CC2)nc1-c1ccnn1-c1ccccc1` [Example 19, 1-(cyclopropylmethyl)-5-[2-(1H-imidazo[1,2-a]imidazol-1-yl)ethoxy]-3-(1-phenyl-1H-pyrazol-5-yl)pyridazin-4(1H)-one], the inhibition at 1 µM came out at 94%.
As for `Cn1c(CCCOc2cn(C3CCC3)nc(-c3ccnn3-c3ccccc3)c2=O)nc2ccccc21` [Example 20, 1-cyclobutyl-5-[3-(1-methyl-1H-benzimidazol-2-yl)propoxy]-3-(1-phenyl-1H-pyrazol-5-yl)pyridazin-4(1H)-one], the inhibition at 1 µM worked out at 99%.
To `Cn1c(CCCOc2cn(C3CCC3)nc(-c3ccnn3-c3ccccc3)c2=O)nc2cccnc21` [Example 21, 1-cyclobutyl-5-[3-(3-methyl-3H-imidazo[4,5-b]pyridin-2-yl)propoxy]-3-(1-phenyl-1H-pyrazol-5-yl)pyridazin-4 (H)-one] belongs 107%.
To `O=c1c(OCCN2CCn3c2nc2ccccc23)cn(C2CCC2)nc1-c1ccnn1-c1ccccc1` [Example 22, 1-cyclobutyl-5-[2-(2,3-dihydro-1H-imidazo[1,2-a]benzimidazol-1-yl)ethoxy]-3-(1-phenyl-1H-pyrazol-5-yl)pyridazin-4 (H)-one] belongs 98%; to `Cn1c(OCCOc2cn(C3CCC3)nc(-c3ccnn3-c3ccccc3)c2=O)nc2ccccc21` [Example 23, 1-cyclobutyl-5-{2-[(1-methyl-1H-benzimidazol-2-yl)oxy]ethoxy}-3-(1-phenyl-1H-pyrazol-5-yl)pyridazin-4(1H)-one], 100%; to `O=c1c(OCCCc2cn3ccccc3n2)cn(C2CCC2)nc1-c1ccnn1-c1ccccc1` [Example 24, 1-cyclobutyl-5-(3-imidazo[1,2-a]pyridin-2-ylpropoxy)-3-(1-phenyl-1H-pyrazol-5-yl)pyridazin-4(1H)-one], 100%.
On to `Cn1c(CCCOc2cn(CC(F)(F)F)nc(-c3ccnn3-c3ccccc3)c2=O)nc2ccccc21` [Example 25, 5-[3-(1-methyl-1H-benzimidazol-2-yl)propoxy]-3-(1-phenyl-1H-pyrazol-5-yl)-1-(2,2,2-trifluoroethyl)pyridazin-4(1H)-one], for which the inhibition at 1 µM was 96%.
As for `Cn1c(CCCOc2cn(CC(F)(F)F)nc(-c3ccnn3-c3ccccc3)c2=O)nc2cccnc21` [Example 26, 5-[3-(3-methyl-3H-imidazo[4,5-b]pyridin-2-yl)propoxy]-3-(1-phenyl-1H-pyrazol-5-yl)-1-(2,2,2-trifluoroethyl)pyridazin-4(1H)-one], the inhibition at 1 µM was found to be 101%.
For `O=c1c(OCCN2CCn3c2nc2ccccc23)cn(CC(F)(F)F)nc1-c1ccnn1-c1ccccc1` [Example 27, 5-[2-(2,3-dihydro-1H-imidazo[1,2-a]benzimidazol-1-yl)ethoxy]-3-(1-phenyl-1H-pyrazol-5-yl)-1-(2,2,2-trifluoroethyl)pyridazin-4(1H)-one], the inhibition at 1 µM turned out to be 98%.

The values above are taken from US8883788B2, “Fused heterocyclic ring compound” (Takeda Pharmaceutical Company Limited, priority 2010, dated 2014).
